Patent EP4733299A1, “SULFUR-CONTAINING FUSED RING COMPOUND, PHARMACEUTICAL COMPOSITION CONTAINING SAME, AND PREPARATION METHOD THEREFOR AND USE THEREOF” (Shenzhen Braegen Pharmaceutical Co., Ltd., priority 2023, dated 2024)

Molecular target: T1, α-Synuclein aggregates (Homo sapiens, UniProt P37840)
T1 construct: purchased Proteos Inc RP-002
Assay: Fluorescence binding assay with protein aggregates (fluorescence spectrophotometer)
Details: compound 5 µM, 37°C, 5 min
Procedure: First, the compound was a final concentration of 5 µM by dissolved in 50 mM Tris-buffer (pH 7.0) with 0.0025% (v/v) DMSO. Then, Aβ, α-Synuclein, and Tau aggregates were added, with their final concentrations being 0.02, 0.04, 0.08, 0.16, 0.32, 0.64, and 1.28 µM, respectively. Subsequently, the fluorescence measurements were detected using a fluorescence spectrophotometer (Horiba, Fluorolog3).
α-synuclein Aggregates (Proteos Inc; catalog No.: RP-002).
Tau aggregates: The cDNA sequence of Tau was inserted into a plasmid carrying a GST tag, which was then transfected into BL21 bacteria for protein expression. Bacterial pellets were resuspended in high-salt buffer (0.75 M NaCl, 50 mM Tris, pH 7.4, 1 mM EDTA), sonicated, and centrifuged at 70,000 x g for 30 min. The supernatants were applied onto a Glutathione sepharose beads column (GE Healthcare) and purified by GST tag. Thrombin was used to remove the GST tag. The protein was dialyzed with FPLC buffer (50 mM NaCl, 50 mM Tris- HCl pH 7.4). The protein was filtered through a 0.22 µm syringe filter. The concentration of Tau was adjusted to 3 mg/mL, 12.5 µM heparin was added, and the mixture was shaken at 37 °C and 300 rpm for 7 days to prepare Tau aggregates. • Incubation Concentrations: 0.02, 0.04, 0.08, 0.16, 0.32, 0.64, and 1.28 µM; • Incubation Temperature: 37°C; • Incubation Duration: 5 min; • Detection Wavelengths: [formula]
Statistical analysis was performed using GraphPad Prism® version 8.2.1.

SMILES	Kd
Cc1cc2nc(/C=C/c3ccc(O)c(N)c3)sc2cc1N(C)CCOCCF [Compound C, (E)-2-amino-4-(2-(6-((2-(2-fluoroethoxy)ethyl)(methyl)amino)-5-methylbenzo[d]thiazol-2-yl)vinyl)phenol]	314 nM
COc1c(/C=C/c2nc3cc(C)c(N(C)CCOCCF)cc3s2)ccc(O)c1Br [Compound E, (E)-2-bromo-4-(2-(6-((2-(2-fluoroethoxy)ethyl)(methyl)amino)-5-methylbenzo[d]thiazol-2-yl)vinyl)-3-methoxyphenol]	15.6 nM
CCN(CCOCCF)c1cc2sc(/C=C/c3ccc(O)c(Br)c3)nc2cc1C [Compound R, (E)-2-bromo-4-(2-(6-(ethyl(2-(2-fluoroethoxy)ethyl)amino)-5-methylbenzo[d]thiazol-2-yl)vinyl)phenol]	80.9 nM
